From patent US9737493B2, “Compositions and methods for modulating DNMT1 inhibitor activity” (University of Louisville Research Foundation, Inc., priority 2012, dated 2017) come the findings set out here.

For assay [1], the system named is A549 cells. Nature of the assay: DNA content (PI) cell cycle analysis. The class given is cell-based, human. On the procedure:
(§1) FIG. 6: DNA Content Analysis for Malignant Cells treated with XB05. (A) U937 and A549 cells were treated with XB05 at the concentrations indicated for 24, 48 and 72 h. At each time point, the cells were harvested and subjected to propidium iodide (PI) staining for DNA content analysis as described in Methods. (B) Tables showing percentage of cycling cells (non-SubG1) in various phases of the cell cycle after treatment with vehicle or XB05 as indicated in FIG. 6A.
(§2) Flow Cytometric Assays. Analyses were performed using a FACScalibur flow cytometer (BD Biosciences, Mountain View, Calif.) and FlowJo software (Tree Star, Inc., Ashland, Oreg.). Cells were treated as indicated in the figures and in the Brief Description of the Drawings. Cells were harvested by using TrypLE Cell Dissociation Reagent (Life Technologies). For cell death analyses, cells (adherent and detached cells) were stained with annexin-V-FITC and propidium iodide (PI) using the Apoptosis Detection Kit (BD Biosciences, San Jose, Calif.), according to the manufacturer's instructions. For cell-cycle distribution, cells were fixed, and stained with PI using the Cycle Test Plus kit (Becton Dickinson, Franklin Lakes, N.J.). […] Cells were then washed twice with PBS, re-suspended at a density of 1×10^6 cells/mL in PBS and analyzed by flow cytometry.

The test system of assay [2] is U937 cells. Nature of the assay: DNA content (PI) cell cycle analysis. The class given is cell-based, human. Particulars: U937, 24 h. The protocol: as §1, §2
The subject of a further assay is MDA-MB-231 cells. The assay can be described thus: MTT cell proliferation assay. It counts as cell-based. The note with it: Homo sapiens, MDA-MB-231, 72 h. On the procedure: (§3) Cell Proliferation Assays. The antiproliferative activity of XB05 was tested using a previously published 3-(4,5-dimethylthiazol-2-yl)-2,5-diphenyltetrazolium bromide (MTT) assay protocol (Girvan et al., “AGRO100 inhibits activation of nuclear factor-kappaB (NF-kappaB) by forming a complex with NF-kappaB essential modulator (NEMO) and nucleolin” Molecular Cancer Therapeutics (2006) Vol. 5, No. 7, pp. 1790-1799). Briefly, cells were seeded in quadruplicate wells in 96-well plates and allowed to adhere overnight. […] Plates were incubated with XB05 for 72 h, during which the cell culture medium was not changed. Cell viability was determined and the background corresponding to medium alone (no cells) was subtracted. Data were analyzed as described in the Brief Description of the Drawings.
(§4) XB05 has Cancer-Selective Antiproliferative Activity. XB05 was tested to determine its antiproliferative activity in a variety of human cell lines that are derived from malignant tissues or from non-malignant (immortalized but not transformed) cells and listed in FIG. 1B. As described in Materials and Methods, cells were treated with varying concentrations of XB05 for 72 h and evaluated using the MTT cell proliferation assay.

A further assay has as its system DU145 cells. The assay can be described thus: MTT cell proliferation assay. The class given is cell-based. Particulars: Homo sapiens, DU-145; DU145, 72 h. On the procedure:
as §3, §4

In assay [3] the test system is A549 cells. Nature of the assay: Flow cytometric detection of γ-H2AX. It counts as cell-based, human. Particulars: A549, 2 μM, 24 h. The protocol: (§5) FIG. 11: XB05 Induces DNA Damage in Malignant Cells. (A) Alkaline comet assays for detection of DNA damage for cells treated as indicated for 72 h. TBHP was a positive control for oxidative DNA damage. Decreased DNA fluorescence in nucleoid comet heads (arrows) and increased smearing of DNA into comet tails (asterisks) is indicated. Scale bar, 400 μm. Data shown are representative of at least two individual experiments for each cell line. (B) Western blot analysis for γ-H2AX and GAPDH (loading control) in whole cell extracts from cells treated with vehicle, UV irradiation (800 μJ, positive control for DSBs), or XB05 (1 μM for U937, 2 μM for A549) after 24 h. Images shown are representative of three individual experiments in each cell line. (C) Flow cytometric detection of γ-H2AX in cells treated as described in part B. Bar graph represents mean+/−SEM for 3 individual experiments in each cell line. Statistical comparison indicated significant differences between vehicle and XB05-treated groups in both cell lines (*p≦0.05).
(§6) Flow Cytometric Assays. Analyses were performed using a FACScalibur flow cytometer (BD Biosciences, Mountain View, Calif.) and FlowJo software (Tree Star, Inc., Ashland, Oreg.). […] Cells were then washed twice with PBS, re-suspended at a density of 1×10^6 cells/mL in PBS and analyzed by flow cytometry.
Background: Flow cytometry measures light scatter and fluorescence of single cells or particles in a stream.

Assay [4] has as its system U937 cells. Nature of the assay: Flow cytometric detection of γ-H2AX. The class given is cell-based, human. The note with it: U937, 1 μM, 24 h. The protocol:
as §5, §6

A further assay concerns the target recombinant human DNMT1 (Homo sapiens, UniProt P26358). Nature of the assay: DNMT1 activity assay. It counts as biochemical. The note with it: recombinant human DNMT1 or nuclear extracts from treated cells. The source says: The assays use recombinant Human DNMT1 (FIG. 19A) or nuclear extracts prepared from cells treated with XB05 (BX11) or 5-Aza (5-azacytidine) (FIG. 19B).

Chain of recombinant human DNMT1 (P26358 whole entry): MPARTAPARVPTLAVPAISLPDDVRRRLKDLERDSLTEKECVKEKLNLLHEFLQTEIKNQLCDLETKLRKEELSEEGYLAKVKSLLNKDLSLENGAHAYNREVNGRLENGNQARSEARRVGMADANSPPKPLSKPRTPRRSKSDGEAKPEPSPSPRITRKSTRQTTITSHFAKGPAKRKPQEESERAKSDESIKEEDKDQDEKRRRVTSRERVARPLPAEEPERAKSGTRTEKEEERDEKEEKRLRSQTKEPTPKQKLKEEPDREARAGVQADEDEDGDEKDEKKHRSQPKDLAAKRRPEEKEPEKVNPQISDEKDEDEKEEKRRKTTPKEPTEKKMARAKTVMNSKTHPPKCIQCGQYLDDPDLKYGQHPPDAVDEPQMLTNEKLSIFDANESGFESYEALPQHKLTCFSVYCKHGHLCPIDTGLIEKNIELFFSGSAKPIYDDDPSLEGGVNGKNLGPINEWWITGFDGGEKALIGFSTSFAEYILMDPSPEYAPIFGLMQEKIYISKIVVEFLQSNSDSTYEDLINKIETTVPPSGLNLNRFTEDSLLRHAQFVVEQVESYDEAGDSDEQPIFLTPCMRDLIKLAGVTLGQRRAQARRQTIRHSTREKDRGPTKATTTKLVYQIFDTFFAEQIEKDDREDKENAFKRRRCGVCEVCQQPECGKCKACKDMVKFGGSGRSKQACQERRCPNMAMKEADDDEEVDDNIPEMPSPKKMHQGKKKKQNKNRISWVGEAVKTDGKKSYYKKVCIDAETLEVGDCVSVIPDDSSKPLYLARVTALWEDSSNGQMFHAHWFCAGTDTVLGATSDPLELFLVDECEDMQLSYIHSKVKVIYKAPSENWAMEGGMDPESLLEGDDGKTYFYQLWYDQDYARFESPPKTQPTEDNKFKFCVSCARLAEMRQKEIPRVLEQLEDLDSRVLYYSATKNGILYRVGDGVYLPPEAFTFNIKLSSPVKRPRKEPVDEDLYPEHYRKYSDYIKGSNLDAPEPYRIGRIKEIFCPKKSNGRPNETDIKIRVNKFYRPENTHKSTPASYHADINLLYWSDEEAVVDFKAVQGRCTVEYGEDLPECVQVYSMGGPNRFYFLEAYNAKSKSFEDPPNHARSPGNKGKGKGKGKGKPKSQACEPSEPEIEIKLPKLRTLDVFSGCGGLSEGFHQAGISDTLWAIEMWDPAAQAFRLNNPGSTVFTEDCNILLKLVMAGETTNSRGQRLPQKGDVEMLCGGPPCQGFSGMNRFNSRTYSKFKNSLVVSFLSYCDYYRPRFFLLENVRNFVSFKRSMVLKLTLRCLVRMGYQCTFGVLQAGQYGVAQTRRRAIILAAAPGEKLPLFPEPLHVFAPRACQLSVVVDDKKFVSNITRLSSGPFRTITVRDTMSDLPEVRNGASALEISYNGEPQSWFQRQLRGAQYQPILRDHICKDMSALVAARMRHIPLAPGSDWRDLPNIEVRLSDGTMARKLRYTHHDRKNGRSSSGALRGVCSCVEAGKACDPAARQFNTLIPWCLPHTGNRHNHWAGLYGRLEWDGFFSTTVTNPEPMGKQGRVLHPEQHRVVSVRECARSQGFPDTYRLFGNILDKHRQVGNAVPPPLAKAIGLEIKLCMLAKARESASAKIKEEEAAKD

`CCCCCC(O)C#CC(F)(F)Br` (stereo not shown) [XB05]: the “proportion of cells in G2/M phase” value in the assay with A549 cells [1] is given as “very modest increase in the G2/M fraction”; with U937 cells [2] it was “pronounced increase in the proportion of cells in G2/M phase”. Besides, the GI50 in the assay with MDA-MB-231 cells and with DU145 cells was under 500 nM each time. Further, the “increase in γ-H2AX staining compared to vehicle-treated controls” value with A549 cells [3] was found to be 2.9 fold; in the assay on U937 cells [4], 4.5 fold. Further, the “effect on DNMT1 activity” value at recombinant human DNMT1 is recorded as “inhibitory effects”.
